Data published in patent publication US6251950A, “Aliphatic propargylamines as cellular rescue agents” (University of Saskatchewan, priority 1998, dated 2001).
Counter-ions that a name gives are not always drawn. Like-named read-outs stand apart in the source and are kept apart here.

Key:
damaged neurons = settings: cited from earlier work
[1] = system: pyramidal neurons in the hippocampus (CA1 neurons); assay: Hypoxia/ischaemia model, CA1 neuron survival; assay type: in vivo, rat; settings: for response vs control in vivo at 0.1 µmol/kg: read-out: Percentage survival of CA1 neurones, of vehicle treated controls (Table 4); for mean survival of CA1 neurons, percentage of vehicle treated controls (Table 2): **P < 0.01
Excerpt: This model produces selective, unilateral lesioning of the pyramidal neurons in the hippocampus which involves neuronal apoptosis.
Values are the mean survival of CA1 neurons expressed as a percentage of
vehicle treated controls (vehicle = 100%) ± sem (n = 6 - 10).

[2] = target: T1, rat liver mitochondrial monoamine oxidase B (Rattus norvegicus, UniProt P19643); assay: biochemical; assay type: biochemical; settings: for MAO-B inhibitory activity / Comparison to most effective MAO-B inhibitor in group: in vitro; for Comparison to most effective MAO-B inhibitor in group: relative to most effective inhibitor in group; for IC50: substrate PE (β-phenylethylamine) 1.9 × 10^-5 M, average of at least 2 independent triplicate experiments
T1 sequence (P19643 1-520): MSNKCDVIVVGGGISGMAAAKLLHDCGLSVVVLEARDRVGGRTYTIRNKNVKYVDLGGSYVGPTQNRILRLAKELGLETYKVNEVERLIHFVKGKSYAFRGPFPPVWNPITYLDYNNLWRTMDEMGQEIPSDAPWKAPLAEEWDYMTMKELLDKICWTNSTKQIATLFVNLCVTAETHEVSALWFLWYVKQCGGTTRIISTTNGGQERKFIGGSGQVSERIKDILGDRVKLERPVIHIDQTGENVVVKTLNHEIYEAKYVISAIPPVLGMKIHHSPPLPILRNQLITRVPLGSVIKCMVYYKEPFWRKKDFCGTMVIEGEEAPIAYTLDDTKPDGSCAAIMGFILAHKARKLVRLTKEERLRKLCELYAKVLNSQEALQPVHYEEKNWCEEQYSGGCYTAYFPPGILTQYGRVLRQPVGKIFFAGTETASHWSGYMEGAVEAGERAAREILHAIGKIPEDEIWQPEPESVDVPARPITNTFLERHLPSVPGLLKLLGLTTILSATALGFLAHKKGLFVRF
Method: Enzyme activity was assessed using a radiometric method as previously described (Yu et al, 1992).

[3] = system: cerebellar granule cells (CGC); assay: in vitro; assay type: cell-based, Wistar rat; settings: for blocking of Ara C induced apoptosis: 10^-7 M (FIG. 1c); for Percent Apoptotic Nuclei (Ara C + R-2HMP + compound): antagonism, Ara C 100 μM + R-2HMP 100 nM + S-enantiomer 10 μM, #P < 0.05 compared to Ara C + R-2HMP; for Percent Apoptotic Nuclei (Ara C + R-2HMP + compound) / Percent Apoptotic Nuclei (Control + compound) / Percent Apoptotic Nuclei (Ara C + compound): mean ± sem of 4 cultures; for Percent Apoptotic Nuclei (Control + compound): no Ara C, control 4.2 ± 0.3; for Percent Apoptotic Nuclei (Control + compound) / Percent Apoptotic Nuclei (Ara C + compound): R-2HMP 100 nM, S-2HMP 10 μM, S-2HPA 10 μM; for Percent Apoptotic Nuclei (Ara C + compound): with Ara C 100 μM, *P < 0.05 compared to Ara C alone
Excerpt: Cultures of cerebellar granule cells (CGC) can be induced into apoptosis by the addition of a high concentration of cytosine arabinoside (Ara C) (Dessi et al., 1995) and it has been shown that this is a p53 dependent apoptosis (Enokido et al, 1996). We have measured the antiapoptotic effect of N-(2-heptyl)propargylamine (2HPA) using this system and compared the results to those obtained with previously known aliphatic methyl propargylamines and deprenyl.
Cultures of CGC were obtained from 6-8 day old Wistar rat pups. Cultures were grown on glass in 35 mm petri dishes for 3 days and then used for experiments. 20 μl aliquots of drug solutions (Ara C, anti-apoptotic drugs, drug vehicles) were added to the medium of the cultures. 24 Hours later the cultures were fixed with FAM, and stained with bis-benzamide. Normal and apoptotic nuclei were counted to a total of 90-120 cells per culture. […] Concentrations in excess of 150 μM caused detachment of the cultures.
Compounds were added at the following concentrations: Ara C, 100 μM,

mouse brain MAO-B = target: T2, mouse brain MAO-B (Mus musculus, UniProt Q8BW75); assay: Inhibition in vivo of brain MAO-B activity after intraperitoneal administration; settings: i.p.
T2 construct: Striata were dissected from the brain two hours after i.p. administration of the drugs; from tissue; host or cells: mouse brain striata, dissected two hours after i.p. dosing
T2 sequence (Q8BW75 1-520): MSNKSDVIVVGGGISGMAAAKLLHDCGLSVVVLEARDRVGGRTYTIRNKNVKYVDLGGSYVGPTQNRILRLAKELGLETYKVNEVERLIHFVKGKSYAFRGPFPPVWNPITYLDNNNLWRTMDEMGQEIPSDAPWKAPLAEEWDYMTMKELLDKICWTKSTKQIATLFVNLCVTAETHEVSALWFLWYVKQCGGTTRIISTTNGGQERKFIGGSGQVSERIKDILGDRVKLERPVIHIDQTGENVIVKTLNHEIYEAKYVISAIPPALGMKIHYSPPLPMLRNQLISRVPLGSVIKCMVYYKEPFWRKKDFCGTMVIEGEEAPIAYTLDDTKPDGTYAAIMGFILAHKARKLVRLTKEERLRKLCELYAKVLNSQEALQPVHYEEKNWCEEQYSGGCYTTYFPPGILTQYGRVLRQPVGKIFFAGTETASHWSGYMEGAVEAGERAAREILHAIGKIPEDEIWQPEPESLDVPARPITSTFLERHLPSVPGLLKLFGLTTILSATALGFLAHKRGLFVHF
Method: Results are the average of two independent triplicate experiments for each i.p. dose. The doses were 0.5, 1, 2, 5, 10, 20 mg/Kg. Striata were dissected from the brain two hours after i.p. administration of the drugs. MAO-B activities were then determined immediately (Yu et al 1992). The values were estimated from dose-response curves.

[4] = 0.1 μmol/kg, s.c., vehicle = 100%, ± sem (n = 6-10)
[5] = Rattus norvegicus, Neuron, sc, 0.1 μmol/kg, s.c., vehicle = 100%, ± sem (n = 6-10), *P < 0.05, **P < 0.01

CCCC(C(=O)OCCN(CC)CC)(c1ccccc1)c1ccccc1 [proadifen]
effect on P450-dependent neurorescue properties of deprenyl (damaged neurons; pretreatment with P450 inhibitor): eliminates the neurorescue properties of deprenyl

C#CCN(C)C [DMP, N,N-dimethylpropargylamine]
response vs control in vivo at 0.1 µmol/kg ([1]; Rattus norvegicus, Neuron, sc): 117 ± 28%

C#CCNC(C)CCCCC (centres unmarked) [Example 2HPA, N-(2-heptyl)-propargylamine]
MAO-B inhibitory activity [2]: substantially reduced in comparison to those of the N-methyl compounds

C#CCN[C@@H](C)CC [Example S-2BuPA, (S)-N-(2-butyl)-propargylamine]
Comparison to most effective MAO-B inhibitor in group [2]: 0.2% | IC50 [2]: 500 µM

C#CCN(C)[C@@H](C)CCCCC [Example S-2HMP, (S)-N-(2-heptyl)-N-methyl-propargylamine]
blocking of Ara C induced apoptosis [3]: did not | Percent Apoptotic Nuclei (Ara C + R-2HMP + compound) [3]: 15.1 ± 0.9% | antagonism of the anti-apoptotic action of the R-enantiomers ([3]; in words): antagonists of the anti-apoptotic action of the R-enantiomers | Percent Apoptotic Nuclei (Control + compound) [3]: 5.0 ± 0.6% | Percent Apoptotic Nuclei (Ara C + compound) [3]: 13.7 ± 1.1% | mean survival of CA1 neurons, percentage of vehicle treated controls (Table 2) [1, 4]: 112 ± 23% | response vs control in vivo at 0.1 µmol/kg [1, 5]: 112 ± 23% | Comparison to most effective MAO-B inhibitor in group [2]: 0.8% | IC50 [2]: 4 µM

C#CCNCCC.Cl [Example 1PrPA, N-1-Propylpropargylamine hydrochloride]
response vs control in vivo at 0.1 µmol/kg [1, 5]: 174 ± 29% | activity in the hypoxia/ischaemia model ([1]; s.c.): active

C#CCN(C)CC [EMP, N-ethyl-N-methylpropargylamine]
response vs control in vivo at 0.1 µmol/kg [1, 5]: 82 ± 19%

C#CCNC(C)C.Cl [Example 2PrPA, N-2-Propylpropargylamine hydrochloride]
response vs control in vivo at 0.1 µmol/kg [1, 5]: 175 ± 20% | activity in the hypoxia/ischaemia model ([1]; s.c.): slightly lower than those of the optimum branched chain compounds

C#CCN[C@H](C)CC.Cl [Example R-2BuPA, (R)-N-2-Butylpropargylamine hydrochloride]
response vs control in vivo at 0.1 µmol/kg [1, 5]: 263 ± 37% | Comparison to most effective MAO-B inhibitor in group [2]: 1.4% | IC50 [2]: 70 µM

C#CCN(C)[C@@H](C)CC [Example S-2BuMP, (S)-N-(2-butyl)-N-methylpropargylamine]
response vs control in vivo at 0.1 µmol/kg ([1]; Rattus norvegicus, Neuron, sc): 139 ± 38%

C#CCNC(C)CC (centres unmarked) [Example 2BuPA, N-(2-butyl)-propargylamine]
MAO-B inhibitory activity [2]: substantially reduced in comparison to those of the N-methyl compounds

C#CCNC(C)CCCC (centres unmarked) [Example 2HxPA, N-(2-hexyl)-propargylamines]
MAO-B inhibitory activity [2]: substantially reduced in comparison to those of the N-methyl compounds

C#CCNCC [EPA, N-ethylpropargylamine]
response vs control in vivo at 0.1 µmol/kg [1, 5]: 164 ± 18%

C#CCNCCCCCC [Example 1HxPA, N-1-Hexylpropargylamine hydrochloride]
response vs control in vivo at 0.1 µmol/kg [1, 5]: 179 ± 23%

C#CCN(C)[C@H](C)CCCCC [Example R-2HMP, (R)-N-(2-heptyl)-N-methyl-propargylamine]
blocking of Ara C induced apoptosis [3]: completely blocked | EC50 ([3]; Rattus norvegicus, inhibition of Ara C induced apoptosis (FIG. 1a, 1b)): 0.001 to 0.1 µM | Percent Apoptotic Nuclei (Control + compound) [3]: 4.8 ± 0.7% | Percent Apoptotic Nuclei (Ara C + compound) [3]: 6.3 ± 0.8% | mean survival of CA1 neurons, percentage of vehicle treated controls (Table 2) [1, 4]: 239 ± 35% | response vs control in vivo at 0.1 µmol/kg [1, 5]: 239 ± 35% | ED50 ([1]; Rattus norvegicus, Neuron, sc, subcutaneous administration): 0.001 to 0.01 µmol/kg | activity in the hypoxia/ischaemia model ([1]; s.c.): shows significant activity | Comparison to most effective MAO-B inhibitor in group [2]: 100% | IC50 [2]: 0.03 µM | Comparison to most effective inhibitor (mouse brain MAO-B; in vivo, relative to R-2HMP): 100% | potency relative to R-deprenyl (mouse brain MAO-B; mouse brain MAO-B, fold more potent than R-deprenyl): 2.5 fold | ED50 (mouse brain MAO-B; mouse, ip, 2 h, PE 1.9 × 10^-5 M, striata two hours after administration, estimated from dose-response curves, read-out: IC50 (mg/Kg) (MAO-B, in vivo)): 0.2 mg/kg

C#CCNC(C)Cc1ccccc1 (centres unmarked) [Desmethyldeprenyl]
anti-apoptotic / neurorescue activity (damaged neurons): active as an anti-apoptotic drug

C#CCN(C)[C@H](C)CC [Example R-2BuMP, (R)-N-(2-butyl)-N-methylpropargylamine]
response vs control in vivo at 0.1 µmol/kg ([1]; Rattus norvegicus, Neuron, sc): 297 ± 52%

C#CCN(C)CCC [Example 1PrMP, N-(1-propyl)-N-methylpropargylamine]
response vs control in vivo at 0.1 µmol/kg [1, 5]: 127 ± 31% | activity in the hypoxia/ischaemia model ([1]; s.c.): inactive

C#CCN(C)[C@H](C)CCCC [Example R-2HxMP, N-(2-hexyl)-N-methyl-propargylamine]
Comparison to most effective MAO-B inhibitor in group [2]: 100% | IC50 [2]: 0.03 µM

CCCCC[C@@H](C)N [Example R-2HA, (R)-(2-heptyl)amine]
mean survival of CA1 neurons, percentage of vehicle treated controls (Table 2) [1, 4]: 90 ± 30% | activity in the hypoxia/ischaemia model ([1]; s.c.): neither increase nor decrease the CA1 neuronal death

C#CCN(C)C(C)C [Example 2PrMP, N-(2-propyl)-N-methylpropargylamine]
response vs control in vivo at 0.1 µmol/kg [1, 5]: 255 ± 43% | activity in the hypoxia/ischaemia model ([1]; s.c.): slightly lower than those of the optimum branched chain compounds

CCCCC[C@@H](C)NC [Example R-2HMA, (R)-N-(2-heptyl)-methylamine]
mean survival of CA1 neurons, percentage of vehicle treated controls (Table 2) [1, 4]: 85 ± 26% | activity in the hypoxia/ischaemia model ([1]; s.c.): neither increase nor decrease the CA1 neuronal death

C#CCNC [MPA, N-methylpropargylamine]
response vs control in vivo at 0.1 µmol/kg ([1]; Rattus norvegicus, Neuron, sc): 78 ± 31%

C#CCN(C)[C@@H](C)CCCC [Example S-2HxMP, N-(2-hexyl)-N-methyl-propargylamine]
Comparison to most effective MAO-B inhibitor in group [2]: 4.3% | IC50 [2]: 0.7 µM

C#CCN(C)CCCCCC [Example 1HxMP, N-(1-hexyl)-N-methylpropargylamine]
response vs control in vivo at 0.1 µmol/kg [1, 5]: 215 ± 24%

C#CCN[C@@H](C)CCCCC [Example S-2HPA, (S)-N-(2-heptyl)-propargylamine]
Percent Apoptotic Nuclei (Ara C + R-2HMP + compound) [3]: 13.8 ± 1.2% | antagonism of the anti-apoptotic action of the R-enantiomers ([3]; in words): antagonists of the anti-apoptotic action of the R-enantiomers | anti-apoptotic effect ([3]; in words): does not have an anti-apoptotic effect | Percent Apoptotic Nuclei (Control + compound) [3]: 4.7 ± 0.7% | Percent Apoptotic Nuclei (Ara C + compound) [3]: 14.2 ± 0.9% | mean survival of CA1 neurons, percentage of vehicle treated controls (Table 2) [1, 4]: 131 ± 19% | response vs control in vivo at 0.1 µmol/kg [1, 5]: 131 ± 19% | Comparison to most effective MAO-B inhibitor in group [2]: 0.1% | IC50 [2]: 30 µM

C#CCN[C@H](C)CCCC.Cl [Example R-2HxPA, (R)-N-2-Hexylpropargylamine hydrochloride]
Comparison to most effective MAO-B inhibitor in group [2]: 0.8% | IC50 [2]: 4 µM

C#CCN(C)[C@@H](C)Cc1ccccc1 [S-deprenyl]
blocking of Ara C induced apoptosis [3]: did not
